# pIC50: −log10 of the molar value.
# Key:
# [1] = SUPPLEMENTARY: Lipophilicity (log D) Determination by high-throughput shake-flask; type: physicochemical; settings: octanol/water
# [2] = target: T1, Carnitine O-palmitoyltransferase 1, muscle isoform (Homo sapiens, UniProt Q92523); experiment: SUPPLEMENTARY: Inhibition of Carnitine palmitoyltransferase 1, muscle isoform; set-up: species or system Muscle tissue
# T1 sequence (Q92523 whole entry): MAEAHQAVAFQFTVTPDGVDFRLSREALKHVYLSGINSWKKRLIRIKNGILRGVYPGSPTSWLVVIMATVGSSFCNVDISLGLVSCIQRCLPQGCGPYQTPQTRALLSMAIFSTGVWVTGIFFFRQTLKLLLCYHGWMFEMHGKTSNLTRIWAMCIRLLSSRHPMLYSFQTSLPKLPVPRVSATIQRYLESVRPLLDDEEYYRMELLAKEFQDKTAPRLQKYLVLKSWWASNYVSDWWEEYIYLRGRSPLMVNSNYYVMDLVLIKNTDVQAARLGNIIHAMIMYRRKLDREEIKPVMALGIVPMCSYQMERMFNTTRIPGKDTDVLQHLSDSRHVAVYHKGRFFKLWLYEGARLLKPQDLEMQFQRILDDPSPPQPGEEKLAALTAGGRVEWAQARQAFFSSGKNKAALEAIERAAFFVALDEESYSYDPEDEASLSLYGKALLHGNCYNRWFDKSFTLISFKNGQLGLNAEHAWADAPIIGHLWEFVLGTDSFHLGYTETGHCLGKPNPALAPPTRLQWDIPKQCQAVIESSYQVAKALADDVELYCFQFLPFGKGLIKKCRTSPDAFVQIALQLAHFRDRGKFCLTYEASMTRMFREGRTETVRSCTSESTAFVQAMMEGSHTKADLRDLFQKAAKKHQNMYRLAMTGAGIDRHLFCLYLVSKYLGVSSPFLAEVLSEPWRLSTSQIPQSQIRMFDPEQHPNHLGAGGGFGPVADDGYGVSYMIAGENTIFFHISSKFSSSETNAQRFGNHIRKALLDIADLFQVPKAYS
# [3] = target: T2, Carnitine O-palmitoyltransferase 2, mitochondrial (Homo sapiens, UniProt P23786); experiment: (§1) SUPPLEMENTARY: Inhibition of Carnitine palmitoyltransferase 2
# T2 sequence (P23786 whole entry): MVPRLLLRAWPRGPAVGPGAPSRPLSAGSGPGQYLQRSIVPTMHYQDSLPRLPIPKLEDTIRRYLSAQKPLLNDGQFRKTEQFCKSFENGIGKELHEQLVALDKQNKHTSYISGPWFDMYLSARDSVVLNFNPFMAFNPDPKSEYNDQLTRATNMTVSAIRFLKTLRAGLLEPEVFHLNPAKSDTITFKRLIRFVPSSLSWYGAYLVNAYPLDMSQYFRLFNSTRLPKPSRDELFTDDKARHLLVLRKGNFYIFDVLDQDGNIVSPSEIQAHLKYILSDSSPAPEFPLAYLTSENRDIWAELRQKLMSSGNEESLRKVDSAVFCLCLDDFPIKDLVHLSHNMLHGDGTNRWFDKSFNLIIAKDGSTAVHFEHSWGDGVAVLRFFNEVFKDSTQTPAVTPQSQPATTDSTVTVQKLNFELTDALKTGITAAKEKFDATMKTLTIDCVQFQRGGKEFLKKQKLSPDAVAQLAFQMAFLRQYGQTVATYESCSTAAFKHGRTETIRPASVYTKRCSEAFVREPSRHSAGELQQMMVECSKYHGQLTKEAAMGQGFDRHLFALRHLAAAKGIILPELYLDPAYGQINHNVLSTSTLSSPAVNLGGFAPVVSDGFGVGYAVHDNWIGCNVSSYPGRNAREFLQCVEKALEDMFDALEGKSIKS
# [4] = target: T3, Carnitine O-palmitoyltransferase 2, mitochondrial (Rattus norvegicus, UniProt P18886); experiment: as §1
# T3 sequence (P18886 whole entry): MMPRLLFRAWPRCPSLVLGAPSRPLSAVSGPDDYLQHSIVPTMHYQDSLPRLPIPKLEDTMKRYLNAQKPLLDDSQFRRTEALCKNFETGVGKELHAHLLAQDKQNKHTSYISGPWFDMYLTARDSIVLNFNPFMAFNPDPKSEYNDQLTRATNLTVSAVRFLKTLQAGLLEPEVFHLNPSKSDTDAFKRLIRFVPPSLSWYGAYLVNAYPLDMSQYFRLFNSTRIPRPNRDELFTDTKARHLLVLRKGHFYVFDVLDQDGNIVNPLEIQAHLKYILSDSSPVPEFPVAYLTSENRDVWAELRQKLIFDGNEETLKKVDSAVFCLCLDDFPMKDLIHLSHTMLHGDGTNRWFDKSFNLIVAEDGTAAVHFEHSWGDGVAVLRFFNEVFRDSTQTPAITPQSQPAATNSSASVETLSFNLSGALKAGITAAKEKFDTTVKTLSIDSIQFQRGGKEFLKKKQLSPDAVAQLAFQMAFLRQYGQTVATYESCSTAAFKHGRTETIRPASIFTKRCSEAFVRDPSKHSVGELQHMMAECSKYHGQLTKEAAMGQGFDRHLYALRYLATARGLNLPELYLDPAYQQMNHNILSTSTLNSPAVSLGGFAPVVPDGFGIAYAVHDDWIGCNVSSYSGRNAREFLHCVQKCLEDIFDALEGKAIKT
# [5] = SUPPLEMENTARY: PAMPA permeability assay; type: physicochemical; settings: read-out: Permeability
# [6] = SUPPLEMENTARY: Lyophilisation Solubility Assay (LYSA); type: physicochemical; settings: read-out: Kinetic_solubility
# [7] = target: T4, Carnitine O-palmitoyltransferase 1, liver isoform (Rattus norvegicus, UniProt P32198); experiment: (§2) SUPPLEMENTARY: Inhibition of Carnitine palmitoyltransferase 1, liver isoform
# T4 sequence (P32198 whole entry): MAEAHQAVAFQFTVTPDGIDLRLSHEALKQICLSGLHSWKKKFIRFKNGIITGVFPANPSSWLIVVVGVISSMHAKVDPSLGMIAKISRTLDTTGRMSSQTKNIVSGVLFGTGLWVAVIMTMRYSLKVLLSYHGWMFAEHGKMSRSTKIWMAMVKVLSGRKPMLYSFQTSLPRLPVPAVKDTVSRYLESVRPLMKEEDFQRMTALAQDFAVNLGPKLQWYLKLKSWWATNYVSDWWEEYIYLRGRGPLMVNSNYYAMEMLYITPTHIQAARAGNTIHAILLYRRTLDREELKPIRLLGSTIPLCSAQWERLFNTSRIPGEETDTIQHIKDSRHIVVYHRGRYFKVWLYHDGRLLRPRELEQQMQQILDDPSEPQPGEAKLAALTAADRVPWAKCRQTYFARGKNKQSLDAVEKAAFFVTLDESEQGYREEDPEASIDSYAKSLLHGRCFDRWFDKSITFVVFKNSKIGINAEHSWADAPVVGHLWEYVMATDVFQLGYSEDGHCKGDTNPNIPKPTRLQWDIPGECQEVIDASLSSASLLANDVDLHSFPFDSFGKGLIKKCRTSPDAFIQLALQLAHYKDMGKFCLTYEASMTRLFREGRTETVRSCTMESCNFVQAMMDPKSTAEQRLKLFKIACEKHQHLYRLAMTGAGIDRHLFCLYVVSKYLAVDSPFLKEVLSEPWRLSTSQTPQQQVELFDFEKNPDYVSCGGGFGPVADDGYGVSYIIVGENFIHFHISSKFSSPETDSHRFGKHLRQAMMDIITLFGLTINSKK
# [8] = target: T5, Carnitine O-palmitoyltransferase 1, liver isoform (Homo sapiens, UniProt P50416); experiment: as §2
# T5 sequence (P50416 whole entry): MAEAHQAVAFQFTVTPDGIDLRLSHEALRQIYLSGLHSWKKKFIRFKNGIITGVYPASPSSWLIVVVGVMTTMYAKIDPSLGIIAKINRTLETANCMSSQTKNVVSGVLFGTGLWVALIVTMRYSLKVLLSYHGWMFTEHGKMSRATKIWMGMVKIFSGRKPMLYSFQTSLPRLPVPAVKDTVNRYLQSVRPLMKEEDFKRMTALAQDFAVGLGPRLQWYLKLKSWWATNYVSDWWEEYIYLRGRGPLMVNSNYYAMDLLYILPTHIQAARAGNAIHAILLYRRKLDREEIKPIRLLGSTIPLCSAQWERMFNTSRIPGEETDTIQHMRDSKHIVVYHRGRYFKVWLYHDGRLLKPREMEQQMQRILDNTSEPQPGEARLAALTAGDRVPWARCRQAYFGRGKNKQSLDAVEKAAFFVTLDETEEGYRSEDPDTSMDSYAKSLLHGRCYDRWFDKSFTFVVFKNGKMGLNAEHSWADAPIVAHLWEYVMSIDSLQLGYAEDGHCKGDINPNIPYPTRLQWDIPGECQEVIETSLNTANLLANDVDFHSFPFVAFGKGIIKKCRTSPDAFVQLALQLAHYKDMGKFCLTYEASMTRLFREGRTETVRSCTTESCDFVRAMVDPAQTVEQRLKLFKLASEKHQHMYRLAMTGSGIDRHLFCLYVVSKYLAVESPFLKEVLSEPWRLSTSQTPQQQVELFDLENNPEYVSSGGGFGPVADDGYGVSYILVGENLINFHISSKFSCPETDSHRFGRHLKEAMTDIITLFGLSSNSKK
SMILES,logD [1],pIC50 [2],pIC50 [3],pIC50 [4],Papp [5],solubility kinetic [6],pIC50 [7],pIC50 [8]
NC(=O)c1ccc(-c2csc([C@H]3CCCCN3C(=O)COc3ccccc3)n2)cc1,2.26,< 4.00,4.72,4.12,5.48 ×10⁻⁶ cm/s,43 µg/mL,6.32,6.62
Cc1sc([C@H]2CCCCN2C(=O)COc2ccccc2)nc1-c1cccc(C(=O)O)c1,0.73,4.52,4.28,< 4.00,6.19 ×10⁻⁶ cm/s,402 µg/mL,6.93,7.03
COc1ccc(Cl)cc1S(=O)(=O)N(C)c1cc(C(=O)Nc2ncc(CC(=O)O)s2)cc2c1OCO2,-0.06,5.92,< 4.00,< 4.00,2.22 ×10⁻⁶ cm/s,277 µg/mL,7.41,7.17
COc1ccc(Cl)cc1S(=O)(=O)N1CCOc2c(Cl)cc(C(=O)Nc3nc(CC(=O)O)cs3)cc21,2.28,5.93,< 4.00,< 4.00,2.6 ×10⁻⁶ cm/s,12 µg/mL,7.27,7.30
CCN(c1cc(C(=O)Nc2ncc(CC(=O)O)s2)cc2c1OCO2)S(=O)(=O)c1cc(Cl)ccc1OC,2.74,6.21,< 4.00,< 4.00,3.22 ×10⁻⁶ cm/s,144 µg/mL,7.00,7.05
CCCN(c1cc(C(=O)Nc2nc(CC(=O)O)cs2)cc2c1OCO2)S(=O)(=O)c1cc(Cl)ccc1OC,2.72,6.21,< 4.00,< 4.00,3.58 ×10⁻⁶ cm/s,108 µg/mL,6.88,6.91
CCCN(c1cc(C(=O)Nc2ccc(CC(=O)O)cc2)cc2c1OCO2)S(=O)(=O)c1cc(Cl)ccc1OC,0.87,6.02,< 4.00,< 4.00,3.45 ×10⁻⁶ cm/s,517 µg/mL,6.74,6.72
COCCN(c1cc(C(=O)Nc2nc(CC(=O)O)cs2)cc2c1OCO2)S(=O)(=O)c1cc(Cl)ccc1OC,2.57,5.45,4.13,< 4.00,1.16 ×10⁻⁶ cm/s,238 µg/mL,6.81,6.60
COc1ccc(Cl)cc1S(=O)(=O)N1CCOc2c(Cl)cc(C(=O)Nc3ncc(CC(=O)O)s3)cc21,2.27,6.16,< 4.00,< 4.00,3.12 ×10⁻⁶ cm/s,5 µg/mL,7.43,7.16

# The remaining compounds from weak to strong by pIC50 [2], led by results:
logD [1],pIC50 [2],pIC50 [3],pIC50 [4],Papp [5],solubility kinetic [6],pIC50 [7],pIC50 [8],SMILES
-1.41,5.37,< 4.00,< 4.00,0.13 ×10⁻⁶ cm/s,> 566 µg/mL,6.28,6.71,COc1ccc(Cl)cc1S(=O)(=O)N(C)c1cc(C(=O)Nc2ccn(CC(=O)O)n2)cc2c1OCO2
2.65,5.95,< 4.00,< 4.00,3.4 ×10⁻⁶ cm/s,102 µg/mL,7.07,7.02,CCN(c1cc(C(=O)Nc2nc(CC(=O)O)cs2)cc2c1OCO2)S(=O)(=O)c1cc(Cl)ccc1OC
0.88,5.96,4.11,< 4.00,3.23 ×10⁻⁶ cm/s,44 µg/mL,7.00,6.91,COc1ccc(Cl)cc1S(=O)(=O)N1CCOc2c(Cl)cc(C(=O)Nc3ccc(CC(=O)O)cc3)cc21
2.84,6.09,4.42,< 4.00,3.53 ×10⁻⁶ cm/s,109 µg/mL,6.43,6.79,COc1ccc(Cl)cc1S(=O)(=O)N(c1cc(C(=O)Nc2ncc(CC(=O)O)s2)cc2c1OCO2)C(C)C
2.74,6.15,< 4.00,< 4.00,3.56 ×10⁻⁶ cm/s,108 µg/mL,7.21,6.74,CCCN(c1cc(C(=O)Nc2ncc(CC(=O)O)s2)cc2c1OCO2)S(=O)(=O)c1cc(Cl)ccc1OC

# — ChEMBL document CHEMBL3431459, “Roche carnitine palmitoyltransferase modulator screening data (supplementary data associated with the publication CHEMBL2216752)”
